“And” between values parts separate entries of the source, which are not always exact repeats. Equal entries are not always repeated.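 Each compound was tested at five concentrations against cells in 96-well plates for 48 hours. At the GI50, growth is halved. The concentration for full growth arrest is given as TGI.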
Legend:
Experiment in all cases: NCI anticancer screen, dose series, 48 h
SF-268 CNS = test system: SF-268 CNS
UO-31 renal = test system: UO-31 renal
KM12 colon = test system: KM12 colon
NCI-H522 lung = test system: NCI-H522 lung
LOX IMVI melanoma = test system: LOX IMVI melanoma
SNB-75 CNS = test system: SNB-75 CNS
EKVX NSCLC = test system: EKVX NSCLC
UACC-257 melanoma = test system: UACC-257 melanoma
TK-10 renal = test system: TK-10 renal
SF-539 CNS = test system: SF-539 CNS

Row | SMILES | GI50 (SF-268 CNS) | TGI (SF-268 CNS) | GI50 (UO-31 renal) | TGI (UO-31 renal) | GI50 (KM12 colon) | TGI (KM12 colon) | GI50 (NCI-H522 lung) | TGI (NCI-H522 lung) | GI50 (LOX IMVI melanoma) | TGI (LOX IMVI melanoma) | GI50 (SNB-75 CNS) | TGI (SNB-75 CNS) | GI50 (EKVX NSCLC) | TGI (EKVX NSCLC) | GI50 (UACC-257 melanoma) | TGI (UACC-257 melanoma) | TGI (TK-10 renal) | GI50 (SF-539 CNS) | TGI (SF-539 CNS) | GI50 (TK-10 renal)
1 | N#C/C(=C\c1ccc(O)c(O)c1)C(=O)NCc1ccc(C(F)(F)F)cc1 | 14.9 µM | > 62.9 µM | 4.62 µM | 18 µM | 6.08 µM | 26.9 µM | 3.06 µM | 19.6 µM | 7.54 µM | 20.4 µM | 13.3 µM | 55.7 µM | 19.7 µM | > 61.8 µM | 17.9 µM | > 68.6 µM | 10.4 µM | 5.5 µM | 17.8 µM | –
2 | O=C1C=CC2(CCCCCCC2=O)CC1 (stereo unspecified) | – | > 100 µM | – | > 100 µM | – | > 100 µM | – | > 100 µM | – | > 100 µM | – | > 100 µM | – | > 100 µM | – | > 100 µM | > 100 µM | – | > 100 µM | –
3 | CC(=O)OC1C[C@H]2C(OC(=O)c3ccccc3)C3C4(OC(C)=O)COC4C[C@H](OC(C)=O)[C@@]3(C)C(OC(C)=O)[C@H](OC(C)=O)C(=C1C)C2(C)C (stereo partly specified) | – | > 100 µM | – | 79.8 µM | – | > 100 µM | – | 79.2 µM | – | > 100 µM | – | 45.2 µM | – | > 100 µM | – | > 100 µM | > 100 µM | – | > 100 µM | –
4 | CNC(=O)c1cc(Oc2ccc3nc(NC(=O)Nc4ccc(CN5CCOCC5)c(C(F)(F)F)c4)sc3c2)ccn1 | 3.22 µM | 14.6 µM | 1.65 µM | 3.94 µM | 0.446 µM | 2.31 µM | 1.97 µM | 8.36 µM | 1.82 µM | 4.34 µM | 1.74 µM | 4.95 µM | 2.1 µM | 7.55 µM | 2.16 µM | 5.59 µM | 14.7 µM | 1.58 µM | 3.37 µM | 4.45 µM
5 | O=CC(OC(=O)c1ccccc1)C(OC(=O)c1ccccc1)C(COC(c1ccccc1)(c1ccccc1)c1ccccc1)OC(=O)c1ccccc1 (stereo unspecified) | 12.7 µM | 32.3 µM | 10.8 µM | 31.2 µM | 14.3 µM | 31 µM | 4.72 µM | 18.7 µM | 11 µM | 27.3 µM | 10.2 µM | 22.9 µM | 19.6 µM | 61.5 µM | 13.9 µM | 34.4 µM | 50.3 µM | 5.28 µM | 19.4 µM | 20.4 µM
6 | O=C1c2c(O)cccc2C(C(=O)CCCCCC(=O)C2c3cccc(O)c3C(=O)c3c(O)cccc32)c2cccc(O)c21 | 5.02 µM | 4.52 µM and 11.9 µM | 7.85 µM | 3.88 µM and 14.5 µM | 1.65 µM | 3.71 µM and 5.6 µM | 6.72 µM | – | 1.95 µM | 8.85 µM and 7.1 µM | 1.69 µM | 6.15 µM and 7.22 µM | 5.64 µM | 3.68 µM and 19.5 µM | 3.9 µM | 2.73 µM and 10.6 µM | 7.61 µM and 18.7 µM | 6.64 µM | – | 8.83 µM
7 | O=S(=O)(C1=CC(S(=O)(=O)c2ccccc2)COC1)c1ccccc1 (stereo unspecified) | – | > 100 µM | – | > 100 µM | – | > 100 µM | – | > 100 µM | – | > 100 µM | – | > 100 µM | – | > 100 µM | – | > 100 µM | > 100 µM | – | > 100 µM | –
8 | Cc1ccccc1/C=C/c1csnn1 | – | > 71.4 µM | – | > 100 µM | – | > 100 µM | – | > 100 µM | – | > 100 µM | – | > 100 µM | – | > 100 µM | – | > 100 µM | > 100 µM | – | > 100 µM | –
9 | COc1ccc(-c2nn(-c3cccc(Cl)c3)cc2/C=C2\NC(=S)N(c3ccc(Cl)cc3)C2=O)cc1 | 7.41 µM | > 25 µM | 8.53 µM | > 25 µM | 10.1 µM | > 25 µM | 1.98 µM | 6.21 µM | 5.97 µM | > 25 µM | 0.95 µM | 4.47 µM | 4.32 µM | 15.8 µM | 3.95 µM | 8.55 µM | 16 µM | 8.22 µM | > 25 µM | 6.37 µM
10 | CCN(C(=O)N1CCN(c2cc3c(cc2F)c(=O)c(C(=O)O)cn3C2CC2)CC1)c1nc(-c2ccccc2)cs1 | 3.29 µM | > 100 µM | 2.31 µM | > 100 µM | 2.94 µM | > 100 µM | 2.01 µM | 7.61 µM | 1.39 µM | 9.09 µM | 3.66 µM | 16.4 µM | 3.35 µM | > 100 µM | 2.83 µM | 7.61 µM | 53.2 µM | 2.48 µM | 7.51 µM | 3.37 µM
11 | O=C(CCC(=O)Nc1ccccc1C(F)(F)F)N/N=C1\C(=N\NC(=O)CCC(=O)Nc2ccccc2C(F)(F)F)C(c2ccc3c(c2)OCO3)Oc2ccccc21 (stereo unspecified) | – | 18.9 µM | – | > 100 µM | – | > 100 µM | – | > 72.8 µM | – | > 100 µM | – | 43.2 µM | – | > 100 µM | – | > 100 µM | > 100 µM | – | 54.6 µM | –
12 | O=C1Cc2c(-c3ccccc3)cc(-c3ccccc3)nc2-c2ccccc2N1 | – | 19.3 µM | – | 11.4 µM | – | > 100 µM | – | 30.2 µM | – | > 100 µM | – | 7.71 µM | – | 80.3 µM | – | > 100 µM | 5.68 µM | – | 34.4 µM | 2.48 µM
13 | CC(=O)N[C@H](C)[C@@H](O)[C@@H](C)[C@@H]1OC(=O)/C=C/C=C(C)\C=C\[C@]2(C)C[C@@H](NS(C)(=O)=O)C=C[C@@H]2/C=C(C)/C=C/[C@H]1C | 0.357 µM and 0.0531 µM | > 43.5 µM | 0.00495 µM and 0.00725 µM | > 43.5 µM | 0.125 µM and 0.0277 µM | > 43.5 µM | 0.0251 µM and 0.0451 µM | > 43.5 µM | 0.00271 µM and 0.00743 µM | 0.00873 µM and 0.0148 µM | 0.00177 µM and 0.00888 µM | – | – | > 43.5 µM | 0.0227 µM and 0.00967 µM | > 43.5 µM | > 43.5 µM | 0.00357 µM and 0.00623 µM | > 43.5 µM | 0.045 µM and 0.276 µM
14 | O=C(COc1ccc(/C=C2\Oc3ccc4ccccc4c3C2=O)cc1)c1ccc([N+](=O)[O-])cc1 | 13.2 µM | 33.7 µM | 10.6 µM | 39.3 µM | 10.9 µM | 23.4 µM | 2.04 µM | 5.41 µM | 2.88 µM | 10.8 µM | 1.47 µM | 13.6 µM | 47.6 µM | > 100 µM | 18.9 µM | 58.5 µM | 49.3 µM | 13.8 µM | 28.1 µM | 16.6 µM
